The values that follow come from patent publication US6875420B1, “Method of ultrasound imaging” (Amersham Health AS, priority 1991, dated 2005).

The conditions of data set [1]: cited from earlier work; for DENSITY: gas density; for SOLUBILITY: in water, fluorocarbons estimated by extrapolation relative to perfluoro-n-pentane; for boiling point: standard pressure conditions.
The nature of data set [2]: Persistence of microbubbles in water at 37° C. observed by ultrasound scan. The data set is classed as physicochemical. How it is done:
The relationship between a calculated Q-value for a given gas and the persistence of microbubbles of that gas was studied to determine what Q-value would be a lower limit for utility as an ultrasound contrast agent. […] Five mL of a 20% sorbitol solution was taken up in a 10 mL syringe connected to a three way stopcock. A 10 mL syringe, containing 2 cubic centimeters of the subject gas (or low boiling liquid, as pertinent) was attached to the syringe containing the sorbitol solution. The sorbitol and gas or liquid are rapidly mixed 25-times to create a suspension of microbubbles or dispersed liquid and then rapidly added to the water. […] Ultrasound scans before, during and after the addition were made with a Hewlett-Packard Model Sonos 500 ultrasound scanner operating at 5 MHz. The time during which the microbubbles could be observed was recorded. […] The experimental Q-values were obtained by dividing the measured persistence of a given gas by the measured persistence for air.

The nature of data set [3]: Physical properties of gases: density, solubility in water, diffusivity, molar volume, boiling point. It is filed as physicochemical. To be noted: (*) estimated from the known density of homologous fluorocarbons.
Excerpt: Different methods for determining or estimating values for the individual parameters of density, diffusivity, and solubility may be needed depending on the chemical structure of the gas. Values for these parameters may or may not be available from known scientific literature sources such as the Gas Encyclopedia or the tabulations published by the American Chemical Society. Values for the density of most gases are readily available from sources such as the Handbook of Chemistry and Physics. […] Additionally, the solubility in water and molar volume of some gases has been measured with accuracy. In many cases however, calculations for the numerical values for molar volume and solubility may need to be calculated or estimated to provide the data used to determine the value of the Q coefficient for an individual gas by the method described above.
To determine the Q value for several gases, the solubility, molar volume and density of the individual gases are determined and the values are substituted into Equations (7) or (8) above.
This method for estimating the gas solubility of fluorocarbons uses extrapolation of the experimental data of Kabalnov AS, Makarov KN, and Scherbakova OV. […] For a homologous series of non-branched fluorocarbons, the gas solubility may be estimated by increasing or reducing this value by a factor of about 8.0 for each increase or reduction in the number of additional —CF2— groups present in the molecule.
The molar volume of a gas can be estimated by identifying the number and type of atoms that make up the molecule of gas in question. By determining the number and type of atoms present in the molecule and how the individual atoms are bound to each other, known values may be applied for the molecular volume of the individual atoms. By considering the contribution of each individual atom and its frequency of occurrence, one may calculate the total molar volume for a particular gas molecule.
Where [4] appears, read: about 100 micron microbubbles, 20% sorbitol, added to water at 37° C., 5 MHz ultrasound.

Like-named read-outs stand apart in the source and are kept apart here.

Turning to `[Ar]` [Argon], the DENSITY in data set [1] is 1.78 kg/m3.

`O=C=O` [Carbon Dioxide]: in data set [1], the DENSITY is 1.98 kg/m3 and the SOLUBILITY was 33000 µmol/L.

Turning to `FC(F)(F)C(F)(F)C(F)(F)C(F)(F)F` [Decafluorobutane], in data set [1], the DENSITY is listed as 11.21 kg/m3 and the SOLUBILITY is 32 µmol/L.

Regarding `FC(F)(F)C(F)(F)C(F)(F)C(F)(F)C(F)(F)F` [Dodecafluoropentane], the PERSISTENCE of microbubbles in data set [2] (setting [4]) is given as above 5760 min. In data set [1], the water solubility is given as 4.0×10^−6 moles per liter, the DENSITY was 12.86 kg/m3 and the boiling point was 29.5 degrees Centigrade.

On to `CC` [Ethane], for which the DENSITY in data set [1] is given as 1.05 kg/m3.

The compound `CCOCC` [Ethyl ether] came in with a PERSISTENCE of microbubbles in data set [2] (setting [4]) of 0.1 min. Also, in data set [1], the DENSITY is given as 2.55 kg/m3 and the SOLUBILITY is reported as 977,058 micromoles/liter.

Compound `[He]` [Helium] had a PERSISTENCE of microbubbles in data set [2] (setting [4]) of 2.0 min. Moreover, in data set [1], the DENSITY is 0.18 kg/m3 and the SOLUBILITY is 388 µmol/L.

For `FC(F)(F)C#CC(F)(F)F` [Hexafluoro-2-butyne], the DENSITY in data set [3] is 9 (*) kg/m3.

Take `FC(F)=C(F)C(F)=C(F)F` [Hexafluorobuta-1,3-diene]: in data set [3], the DENSITY is recorded as 9 (*) kg/m3.

Turning to `FC(F)(F)C(F)(F)F` [Hexafluoroethane], in data set [1], the DENSITY is reported as 8.86 kg/m3.

`[Kr]` [Krypton]: in data set [1], the DENSITY is reported as 3.8 kg/m3.

Regarding `[Ne]` [Neon], in data set [1], the DENSITY is on record as 0.90 kg/m3 and the SOLUBILITY was 434 µmol/L.

Consider `FC(=C(F)C(F)(F)F)C(F)(F)F` [Octafluoro-2-butene], for which the DENSITY in data set [3] is recorded as 10 (*) kg/m3.

As to `FC1(F)C(F)(F)C(F)(F)C1(F)F` [Octafluorocyclobutane], in data set [1], the DENSITY is 9.97 kg/m3 and the SOLUBILITY is 220 µmol/L.

Regarding `FC(F)(F)C(F)(F)C(F)(F)F` [Octafluoropropane], in data set [1], the DENSITY was 10.3 kg/m3 and the SOLUBILITY was 260 µmol/L.

Consider `CCCCC` [Pentane], for which the PERSISTENCE of microbubbles in data set [2] (setting [4]) was 20.6 min. The SOLUBILITY in data set [1] is 1674 µmol/L.

In the case of `FC(F)(F)C(F)(F)C(F)(F)C(F)(F)C(F)(F)C(F)(F)F` [Perfluorohexane, reference compound], the boiling point in data set [1] is recorded as 59-60 degrees Centigrade.

Compound `CCC` [Propane] had a PERSISTENCE of microbubbles in data set [2] (setting [4]) of 3.2 min. For the same compound, in data set [1], the DENSITY is given as 2.02 kg/m3.

Regarding `FS(F)(F)(F)(F)F` [Sulfur Hexafluoride], the DENSITY in data set [1] was 5.48 kg/m3.

Take `[Xe]` [Xenon]: the DENSITY in data set [1] is recorded as 5.90 kg/m3.

With `CCCC` [n-Butane], the PERSISTENCE of microbubbles in data set [2] was 1.5 min (2.6). In addition, in data set [1], the DENSITY is 2.05 kg/m3 and the SOLUBILITY is 6696 µmol/L.

Regarding Hexafluoropropane, in data set [1], the DENSITY is listed as 10.3 kg/m3.
